Columns and labels:
Format in all cases: cell-based
[1] = system: Saccharomyces cerevisiae wild type strain SU-50; test: Growth curves / growth inhibition of yeast strain SU-50; details: for effect on growth: comparative sugar 25 mM with 25 µM MB21, strain SU50, 100 cells per ml, versus reference (no sugar, no MMAS) and MB21 alone (Fig. 5a)
Experimental: (§1) For examples 2, and 4-9 grow-curves were recorded at 25°C using a microbiology growth reader (Bioscreen C, ex Labsystems). For example 3, growth curve was determined as turbidity, measured by hand at a wave length of 660 nm (OD 660).
(§2) • a) Saccharomyces cerevisiae strain SU52-pUR 5801 was grown in YNB and YEPD media, at 30°C with shaking at 225 rpm in an orbital incubator until a OD (660 nm) between 5 and 6 was reached. In parallel experiments several concentrations of β-gentiobiose or pustulan fragments were included in the media. After cultivation, the media were separated from the cells by centrifugation (10.000 x g for 15 mm at 4°C). The media were then filtered using 0.22 µM filters. Secretion of α-galactosidase-CWP2p was assessed by measuring α-galactosidase enzyme activity in the media (see further on). • b) Growth curves were obtained with the strain SU-50. The cells (about 10 per ml) were cultured in YEPD at 25°C in the presence or absence of β-gentiobiose or pustulan fragments and MB-21, by using a 24 well plate at room temperature with continuous shaking on a micro-titre plate shaker (mark 4) or a microbiology growth reader (Bioscreen C).
(§3) Three YEPD media were prepared, one without MB21, the other YEPD media contained 10 µM MB21 and 20 µM MB21, respectively. To these media β-gentiobiose was added in concentrations of 0, 50, 100 and 200 mM. The yeast strain SU50 was inoculated in these media in a concentration of 10 cells per ml, and cultivated in a 24 well plate at 25°C. Samples were taken from a 24 well plate at regular time intervals, diluted sixty times with distilled water and measured at 660 nm to construct the growth curves. […] However, if the sub-lethal concentrations of MB21 and β-gentiobiose are combined, a clear reduction in growth potential of SU50 (10 cells per ml) was observed.
This example illustrates a relationship between the length of the β-(1,6)-glucan fragments and their effectiveness in competition. When the same concentration of MB21 (20 µM) was used [about 50 cells per ml] was used, a glucan fragment was obtained from pustulan with an average MW of 686, which was at least hundred times as effective as β-gentiobiose, as shown in Fig. 4.
(§4) In this example, three strains are grown in various media in the fashion of example 3, with the exception of being inoculated in the media in a concentration of 100 cells per ml. The sugars used are all comparatives: laminaribiose (β-1,3)-linked D-glucose), sucrose (having a 1,2 link), and sorbitol.
In this example, strain SU 50 was grown three media (see table 2) in the fashion of example 3, with the exception of being inoculated in the media in a concentration of 100 cells per ml.

[2] = system: Zygosaccharomyces bailii G1; test: Growth curves / growth inhibition of yeast strain G1; details: comparative sugar 200 mM with 6 µM MB21, strain G1, 100 cells per ml; versus reference and MB21 alone (Fig. 5c)
Experimental: as §1, §3, §4
In this example, strain G1 was grown three media (see table 4) in the fashion of example 3, with the exception of being inoculated in the media in a concentration of 100 cells per ml. […]

[3] = system: Zygosaccharomyces bailii ZB (NCYC 563); test: Growth curves / growth inhibition of yeast strain ZB; details: comparative sugar 200 mM with 6 µM MB21, strain ZB, 100 cells per ml; versus reference and MB21 alone (Fig. 5b)
Experimental: as §1, §3, §4
In this example, strain ZB was grown three media (see table 3) in the fashion of example 3, with the exception of being inoculated in the media in a concentration of 100 cells per ml.

[4] = system: Saccharomyces cerevisiae strain SU52-pUR5801; test: Cell wall protein release test (secretion of α-galactosidase-CWP2p fusion protein, α-galactosidase activity in the medium); details: β-gentiobiose 10, 50 and 100 mM in YEPD with 5% galactose, 30 °C, 18 hours; linear up to 100 mM (Fig. 1)
Experimental: as §2
α-Galactosidase activity was determined at 37°C using p-nitrophenyl α-D-galactopyranoside (PNPG) as substrate in 0.1 M potassium acetate buffer, pH 5.0. […] The extinction of the liberated p-nitrophenolate was recorded at 405 nm.
β-Gentiobiose was dissolved in YEPD media supplemented with 5% galactose, in concentrations of 10, 50 and 100 mM respectively. […] The enzyme activity of the fusion protein CWP2-α-galactosidase was measured as described in the α-galactosidase assay. […]

In the case of `OC[C@H]1O[C@@H](O[C@H]2[C@H](O)[C@@H](CO)OC(O)[C@@H]2O)[C@H](O)[C@@H](O)[C@@H]1O` (stereo partly drawn) [laminaribiose], the effect on growth [1] is reported as “stimulating effect”.
With `OC[C@@H](O)[C@@H](O)[C@H](O)[C@@H](O)CO` [sorbitol] the effect on growth [2] was “stimulating effect”, the effect on growth [3] was “stimulating effect” and the effect on growth [1] was “stimulating effect”.
With `OC[C@H]1O[C@@](CO)(O[C@H]2O[C@H](CO)[C@@H](O)[C@H](O)[C@H]2O)[C@@H](O)[C@@H]1O` [sucrose] the effect on growth [2] was “stimulating effect”, the effect on growth [3] was “stimulating effect” and the effect on growth [1] was “stimulating effect”.
In the case of `OC[C@H]1O[C@@H](OC[C@H]2O[C@@H](O)[C@H](O)[C@@H](O)[C@@H]2O)[C@H](O)[C@@H](O)[C@@H]1O` [β-Gentiobiose, 6-O-β-D-glucopyranosyl-β-D-glucose], the “release of the fusion protein α-galactosidase-CW2p from the cell wall” value [4] is reported as “concentration dependent” and the “growth of SU-50” value ([1]; β-gentiobiose as such (0, 50, 100, 200 mM), no MB21, 10 cells per ml, 25°C, OD 660 (Fig. 3)) is reported as “no influence”.

Source: patent EP1023836A1, “Compositions and methods for inhibiting the growth of fungi” (UNILEVER N.V., priority 1999, dated 2000)
